This is an account of results in ChEMBL document CHEMBL4433214, “Investigation around the Oxadiazole Core in the Discovery of a New Chemotype of Potent and Selective FXR Antagonists” (ACS Med Chem Lett, 2019).

The source made the active and inactive calls. No cut-off for these calls is given here.

For data set [1], the target named is T1, Bile acid receptor (Homo sapiens) (UniProt Q96RI1).
T1 sequence (whole entry): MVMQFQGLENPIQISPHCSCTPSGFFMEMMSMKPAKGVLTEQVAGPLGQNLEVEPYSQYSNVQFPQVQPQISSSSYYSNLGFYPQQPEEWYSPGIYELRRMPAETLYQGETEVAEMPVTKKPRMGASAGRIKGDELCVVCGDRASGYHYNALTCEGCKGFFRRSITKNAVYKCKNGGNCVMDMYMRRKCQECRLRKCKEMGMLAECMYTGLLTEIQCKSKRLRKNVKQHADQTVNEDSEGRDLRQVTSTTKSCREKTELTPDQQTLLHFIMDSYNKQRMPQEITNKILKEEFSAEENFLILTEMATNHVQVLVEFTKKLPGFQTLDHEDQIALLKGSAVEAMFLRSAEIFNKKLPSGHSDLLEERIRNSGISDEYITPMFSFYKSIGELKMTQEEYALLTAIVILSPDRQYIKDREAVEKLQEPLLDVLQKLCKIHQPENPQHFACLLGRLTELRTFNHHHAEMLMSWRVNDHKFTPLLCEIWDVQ
Nature of the data set: Transactivation of human FXR transfected in HepG2 cells at 10 uM by luciferase reporter assay. The format is cell-based.

Data set [2] in a line: Lipophilicity, log D of the compound by LC-MS/MS analysis. The format is physicochemical. The conditions noted are these: octanol/water.
The target in data set [3] is T2, Oxysterols receptor LXR-beta (Homo sapiens) (UniProt P55055).
T2 sequence (whole entry): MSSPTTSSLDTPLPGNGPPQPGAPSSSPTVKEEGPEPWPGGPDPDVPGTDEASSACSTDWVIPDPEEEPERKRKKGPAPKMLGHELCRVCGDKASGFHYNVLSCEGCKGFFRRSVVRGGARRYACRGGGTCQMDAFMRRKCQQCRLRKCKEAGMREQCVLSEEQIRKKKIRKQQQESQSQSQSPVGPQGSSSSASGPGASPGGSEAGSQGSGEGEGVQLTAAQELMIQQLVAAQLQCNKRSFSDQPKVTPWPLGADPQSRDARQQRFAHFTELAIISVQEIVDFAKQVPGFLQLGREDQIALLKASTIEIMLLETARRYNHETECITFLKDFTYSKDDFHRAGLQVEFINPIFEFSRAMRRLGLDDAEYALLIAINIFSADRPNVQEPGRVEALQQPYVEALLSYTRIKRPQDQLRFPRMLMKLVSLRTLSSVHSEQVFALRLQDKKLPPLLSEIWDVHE
The data set can be described thus: Antagonist activity at human LXRbeta transfected in HepG2 at 5 uM in presence of LXRbeta agonist GW3965 by luciferase reporter assay. The format is cell-based.

Data set [4] deals with T3, Oxysterols receptor LXR-alpha (Homo sapiens) (UniProt Q13133).
T3 sequence (whole entry): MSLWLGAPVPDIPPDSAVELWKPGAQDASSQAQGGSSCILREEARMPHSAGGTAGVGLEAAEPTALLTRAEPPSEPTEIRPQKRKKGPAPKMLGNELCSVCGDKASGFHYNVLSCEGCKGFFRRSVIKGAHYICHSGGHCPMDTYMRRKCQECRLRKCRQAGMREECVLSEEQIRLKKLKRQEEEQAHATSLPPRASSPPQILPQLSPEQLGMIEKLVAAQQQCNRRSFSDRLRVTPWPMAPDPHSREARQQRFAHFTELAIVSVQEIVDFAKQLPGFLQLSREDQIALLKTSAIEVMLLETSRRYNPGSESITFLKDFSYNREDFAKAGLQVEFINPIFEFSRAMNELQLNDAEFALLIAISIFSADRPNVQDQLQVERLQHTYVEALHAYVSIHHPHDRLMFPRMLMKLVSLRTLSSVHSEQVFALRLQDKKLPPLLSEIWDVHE
Nature of the data set: Antagonist activity at human LXRalpha transfected in HepG2 at 5 uM in presence of LXRalpha agonist GW3965 by luciferase reporter assay. The format is cell-based. (A reporter such as luciferase makes a cellular process visible.)

Data set [5] has as its target T4, Nuclear receptor subfamily 1 group I member 2 (Homo sapiens, UniProt O75469).
T4 sequence (O75469 whole entry): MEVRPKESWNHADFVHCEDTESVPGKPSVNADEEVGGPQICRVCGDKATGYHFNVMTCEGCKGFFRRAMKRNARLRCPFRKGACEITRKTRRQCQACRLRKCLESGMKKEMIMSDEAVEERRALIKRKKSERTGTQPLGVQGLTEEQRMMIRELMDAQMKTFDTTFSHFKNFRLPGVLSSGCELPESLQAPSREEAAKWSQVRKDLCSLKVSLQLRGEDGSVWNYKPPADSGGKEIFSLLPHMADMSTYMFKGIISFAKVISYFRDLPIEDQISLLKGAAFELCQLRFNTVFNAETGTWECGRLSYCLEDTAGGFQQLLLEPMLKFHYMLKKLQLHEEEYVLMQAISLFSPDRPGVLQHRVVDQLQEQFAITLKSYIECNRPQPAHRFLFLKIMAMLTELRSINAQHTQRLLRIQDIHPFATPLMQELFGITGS
Nature of the data set: Agonist activity at human PXR transfected in HepG2 at 10 uM by luciferase reporter assay. The format is cell-based. The conditions noted are these: hepg2, 10 µM.

In data set [6] the target is T4, Nuclear receptor subfamily 1 group I member 2. The data set can be described thus: Antagonist activity at human PXR transfected in HepG2 at 5 uM in presence of PXR agonist rifaximin by luciferase reporter assay. The format is cell-based. Conditions: hepg2, 5 µM.
A further data set concerns the target T5, Bile acid receptor (Homo sapiens, UniProt Q96RI1).
T5 sequence (Q96RI1 whole entry): T1 sequence (whole entry)
The data set can be described thus: Antagonist activity at human FXR transfected in HepG2 cells assessed as inhibition of CDCA-induced receptor transactivation by luciferase reporter assay. The format is cell-based.

A short description of data set [7]: Half life in rat liver microsomes at 1 uM incubated for 2 hrs by LC-MS/MS analysis. In general terms: Liver microsomes are a subcellular fraction often used to study metabolism.
Data set [8] deals with T6, Peroxisome proliferator-activated receptor gamma (Homo sapiens) (UniProt P37231).
T6 sequence (whole entry): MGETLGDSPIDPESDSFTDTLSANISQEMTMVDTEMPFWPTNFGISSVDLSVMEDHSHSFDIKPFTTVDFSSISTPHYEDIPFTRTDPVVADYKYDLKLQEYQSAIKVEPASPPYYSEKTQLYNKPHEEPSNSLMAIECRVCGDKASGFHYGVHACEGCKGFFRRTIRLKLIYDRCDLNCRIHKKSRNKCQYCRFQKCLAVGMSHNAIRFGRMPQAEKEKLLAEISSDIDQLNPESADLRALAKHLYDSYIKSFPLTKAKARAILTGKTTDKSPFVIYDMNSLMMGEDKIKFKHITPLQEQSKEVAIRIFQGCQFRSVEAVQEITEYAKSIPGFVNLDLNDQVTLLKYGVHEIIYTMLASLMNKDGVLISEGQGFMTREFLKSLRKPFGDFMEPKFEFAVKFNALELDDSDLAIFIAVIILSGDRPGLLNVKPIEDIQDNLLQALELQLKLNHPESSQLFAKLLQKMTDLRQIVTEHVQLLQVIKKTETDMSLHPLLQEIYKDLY
The data set can be described thus: Agonist activity at human PPARgamma transfected in HepG2 at 10 uM by luciferase reporter assay. The format is cell-based.

The target of data set [9] is T1, Bile acid receptor (Homo sapiens). The data set can be described thus: Antagonist activity at human FXR assessed as reduction in CDCA-induced FXR-SRC-1 recruitment at 500 to 1000 nM incubated for 30 mins by alpha screen assay. Background: Bead proximity is the source of the signal in Alpha formats.

A word on the logD: it is the decadic logarithm of the distribution of all forms, ionised or not, between an organic phase and buffer at a given pH. Usually IC50 stands for the concentration at which inhibition is half-maximal. As usually defined, the half-life is how long it takes for the measured level to halve. Low values mean fast loss, high ones slow loss. As for `c1ccc2cc(-c3noc(C4CCNCC4)n3)ccc2c1`, the result in data set [1], in [3], in [4] and in [8] was inactive. This compound also came in with a logD in [2] of 0.34. Further, the Activity result in data set [5] and in [6] was “Not Active” throughout. The concentration for half-maximal inhibition (IC50) on Bile acid receptor is 580 nM. The compound also came in with a half-life at 1 µM in [7] of 1.86 h. Further, the inhibition entry in [9] was “Active”.
